Test results: ChEMBL document CHEMBL3137381, “MMV Box Onchocerca lienalis screening set”

What was measured:
Type in all cases: functional
[1] = system: Onchocerca lienalis; assay: MMV: Percent motility assay at a compound concentration of 1.25e-5 M. Activity score legend: 3: Active, 2: Moderately active; 1: Inactive, 0: Toxic; conditions: at 12.5 µM
[2] = system: Onchocerca lienalis; assay: MMV: Percent motility assay at a compound concentration of 3.1e-6 M. Activity score legend: 3: Active, 2: Moderately active; 1: Inactive, 0: Toxic; conditions: at 3.1 µM
[3] = system: Onchocerca lienalis; assay: MMV: Percent motility assay at a compound concentration of 1.9e-7 M. Activity score legend: 3: Active, 2: Moderately active; 1: Inactive, 0: Toxic; conditions: at 0.19 µM
[4] = system: Onchocerca lienalis; assay: MMV: Percent motility assay at a compound concentration of 7.8e-7 M. Activity score legend: 3: Active, 2: Moderately active; 1: Inactive, 0: Toxic; conditions: at 0.78 µM

For `O=C1c2ccccc2-c2nnc(-c3ccc(Br)cc3)cc21`, the Motility [1] was 100%, the Motility [2] was 100% and the Motility [3] was 100%. The Motility [4] was 100%.

Compound `CCOC(=O)C1=C(C)N=c2sc(=Cc3ccccc3O)c(=O)n2C1c1ccc(OC)c2ccccc12` (stereo not drawn) has a Motility [1] of 100%, a Motility [2] of 100% and a Motility [3] of 100%. For the same compound, the Motility [4] was 100%.

With `CCOC(=O)C1=C(C)N=c2sc(=Cc3cc(Cl)ccc3O)c(=O)n2C1c1ccc(OC)cc1` (stereo not drawn) the Motility [1] was 100%, the Motility [2] was 100% and the Motility [3] was 100%. The Motility [4] was 100%.

`Cc1nc2ccccc2c(O)c1CC=C(Cl)Cl` gave a Motility [1] of 100%, a Motility [2] of 100% and a Motility [3] of 100%. It also gave a Motility [4] of 100%.

`FC(F)(F)c1cccc(Nc2nc3ccccc3nc2Nc2cccc(C(F)(F)F)c2)c1` showed a Motility [1] of 100%, a Motility [2] of 100% and a Motility [3] of 100%. The Motility [4] was 100%.

`CC(=O)c1ccc(NC(=O)CSc2nc(-c3ccccc3Cl)ns2)cc1` was tested, and the Motility [1] was 100%, the Motility [2] was 100% and the Motility [3] was 100%. For the same compound, the Motility [4] was 100%.

For `COc1ccc(C(=O)NC(c2ccc(Cl)cc2Cl)c2cc(Cl)c3cccnc3c2O)cc1` (stereo not drawn), the Motility [1] was 100%, the Motility [2] was 100% and the Motility [3] was 100%. The Motility [4] was 100%.

Work on `O=C(NCCCN1CCC(N2CCCCC2)CC1)C1=Cc2cc(Br)ccc2OC1` yielded a Motility [1] of 100%, a Motility [2] of 100% and a Motility [3] of 100%. It also gave a Motility [4] of 100%.

`Cc1ccnc(NC(c2cccc(OCc3ccccc3)c2)c2ccc3cccnc3c2O)c1` (stereo not drawn) was tested, and the Motility [1] was 100%, the Motility [2] was 100% and the Motility [3] was 100%. It also gave a Motility [4] of 100%.

With `CCCCOC(=O)c1ccc(Nc2cc(C)nc3ccc(OC)cc23)cc1` the Motility [1] was 100%, the Motility [2] was 100% and the Motility [3] was 100%. For the same compound, the Motility [4] was 100%.

`O=c1cc(NC2CCN(CCCc3ccccc3)CC2)c2cc(Cl)ccc2o1` showed a Motility [1] of 100%, a Motility [2] of 100% and a Motility [3] of 100%. The Motility [4] was 100%.

For `Cc1ccc(OCCCCCCNCCO)c(C)c1`, the Motility [1] was 100%, the Motility [2] was 100% and the Motility [3] was 100%. For the same compound, the Motility [4] was 100%.

`CCOc1ccc(-n2cc(-c3ccccc3)c3c(SCc4cc(C)ccc4C)ncnc32)cc1` showed a Motility [1] of 100%, a Motility [2] of 100% and a Motility [3] of 100%. It also gave a Motility [4] of 100%.

Work on `CC1CCN(Cc2c(O)ccc3cc(-c4nc5ccccc5s4)c(=O)oc23)CC1` yielded a Motility [1] of 100%, a Motility [2] of 100% and a Motility [3] of 100%. It also gave a Motility [4] of 100%.

Compound `Cc1ccc2cc3c(N)c4c(C)ccc(C)c4nc3nc2c1` has a Motility [1] of 100%, a Motility [2] of 100% and a Motility [3] of 100%. The Motility [4] was 100%.

Compound `CC(C)CCNCC(O)Cn1c2ccccc2c2ccccc21.Cl` (stereo not drawn) has a Motility [1] of 100%, a Motility [2] of 100% and a Motility [3] of 100%. For the same compound, the Motility [4] was 100%.

Compound `COc1ccc(C2C(C(=O)Nc3cccc(OC)c3)c3ccccc3C(=O)N2C2CCCCC2)cc1` (stereo not drawn) has a Motility [1] of 100%, a Motility [2] of 100% and a Motility [3] of 100%. For the same compound, the Motility [4] was 100%.

With `CCOC(=O)c1cnc2ccc(Cl)cc2c1NCCCN(C)C` the Motility [1] was 100%, the Motility [2] was 100% and the Motility [3] was 100%. It also gave a Motility [4] of 100%.

`c1ccc2c(NCCc3c[nH]c4ccccc34)c3ccccc3nc2c1` gave a Motility [1] of 100%, a Motility [2] of 100% and a Motility [3] of 100%. The Motility [4] was 100%.

For `O=C(Nc1ccc(C23CC4CC(CC(c5ccccc5)(C4)C2)C3)cc1)c1cccs1`, the Motility [1] was 100%, the Motility [2] was 100% and the Motility [3] was 100%. The Motility [4] was 100%.

`O=C1c2ccccc2C2=Nc3ccccc3SC(c3cccc(F)c3)C12` (stereo not drawn) gave a Motility [1] of 100%, a Motility [2] of 100% and a Motility [3] of 100%. For the same compound, the Motility [4] was 100%.

Compound `Cc1ccccc1OCCSc1nc2ccc(NC(=O)c3ccccc3)cc2s1` has a Motility [1] of 100%, a Motility [2] of 100% and a Motility [3] of 100%. It also gave a Motility [4] of 100%.

Compound `CCOC(=O)c1cnc2c(C)cccc2c1Nc1ccc(C(C)=O)cc1` has a Motility [1] of 100%, a Motility [2] of 100% and a Motility [3] of 100%. It also gave a Motility [4] of 100%.

`Cc1ccc(C2CC(C(F)(F)F)n3nc(C(=O)N4CCN(C(c5ccccc5)c5ccccc5)CC4)cc3N2)cc1` (stereo not drawn) showed a Motility [1] of 100%, a Motility [2] of 100% and a Motility [3] of 100%. For the same compound, the Motility [4] was 100%.

Work on `Cc1ccc2nc(C)cc(Nc3cccc(C(F)(F)F)c3)c2c1.Cl` yielded a Motility [1] of 100%, a Motility [2] of 100% and a Motility [3] of 100%. For the same compound, the Motility [4] was 100%.

With `CC(C)(C)c1ccc(C(=O)Nc2c3c(nn2-c2cccc(Cl)c2)CSC3)cc1` the Motility [1] was 100%, the Motility [2] was 100% and the Motility [3] was 100%. The Motility [4] was 100%.

Work on `COc1ccc(N2CCN(C(CNC(=O)CC(C)(C)C)c3ccc4c(c3)OCO4)CC2)cc1` (stereo not drawn) yielded a Motility [1] of 100%, a Motility [2] of 100% and a Motility [3] of 100%. For the same compound, the Motility [4] was 100%.

Compound `COc1cccc(C(=O)NC(c2ccc(C)cc2)c2cc(Cl)c3cccnc3c2O)c1` (stereo not drawn) has a Motility [1] of 0%, a Motility [2] of 33.33% and a Motility [3] of 100%. It also gave a Motility [4] of 100%.

With `CCCCCCn1c(=N)n(CC(O)COc2cccc(C)c2)c2ccccc21.Cl` (stereo not drawn) the Motility [1] was 100%, the Motility [2] was 100% and the Motility [3] was 100%. For the same compound, the Motility [4] was 100%.

With `COc1ccc(-c2cc(=O)oc3c4c(ccc23)OCN(Cc2ccc(F)cc2)C4)cc1` the Motility [1] was 100%, the Motility [2] was 100% and the Motility [3] was 100%. For the same compound, the Motility [4] was 100%.

Work on `CCOC(=O)C1(Cc2ccccc2)CCN(Cc2cccc(OC)c2O)CC1` yielded a Motility [1] of 100%, a Motility [2] of 100% and a Motility [3] of 100%. It also gave a Motility [4] of 100%.

In the case of `Oc1ccc(C(=C(Cl)Cl)c2ccc(O)cc2)cc1`, the Motility [1] is reported as 100%, the Motility [2] is reported as 100% and the Motility [3] is reported as 100%. For the same compound, the Motility [4] was 100%.

For `CCOc1ccc2c(c1)CN(Cc1ccc(Cl)cc1)CO2`, the Motility [1] was 100%, the Motility [2] was 100% and the Motility [3] was 100%. The Motility [4] was 100%.

With `CC(C)(C)c1ccc2c(c1)CN(Cc1ccc(Cl)cc1)CO2` the Motility [1] was 100%, the Motility [2] was 100% and the Motility [3] was 100%. It also gave a Motility [4] of 100%.

Compound `CCCCC(O)(c1ccc(Cl)cc1)C(CN1CCOCC1)c1ccc(Cl)cc1.Cl` (stereo not drawn) has a Motility [1] of 100%, a Motility [2] of 100% and a Motility [3] of 100%. For the same compound, the Motility [4] was 100%.

`COc1ccc(OC)c(C2C3=C(CC(C)(C)CC3=O)N(c3ccc(Cl)c(Cl)c3)C3=C2C(=O)CC(C)(C)C3)c1` gave a Motility [1] of 100%, a Motility [2] of 100% and a Motility [3] of 100%. For the same compound, the Motility [4] was 100%.

Work on `Cc1cc(=O)oc2c1ccc1oc(C(=O)c3ccccc3)c(C)c12` yielded a Motility [1] of 100%, a Motility [2] of 100% and a Motility [3] of 100%. The Motility [4] was 100%.

`COc1ccc(CN2CCN(Cc3ccccc3)CC2)c(O)c1` was tested, and the Motility [1] was 100%, the Motility [2] was 100% and the Motility [3] was 100%. It also gave a Motility [4] of 100%.

In the case of `COc1ccc2c(c1OC)C(=O)N1c3ccccc3N=C(c3ccc(C)cc3)CC21` (stereo not drawn), the Motility [1] is reported as 100%, the Motility [2] is reported as 100% and the Motility [3] is reported as 100%. For the same compound, the Motility [4] was 100%.

With `CCCCCCc1cc(O)c2c3c(c(=O)oc2c1)CCC(C)C3` (stereo not drawn) the Motility [1] was 100%, the Motility [2] was 100% and the Motility [3] was 100%. The Motility [4] was 100%.

`CCCc1c(C)nc2ccc(Br)cc2c1O` showed a Motility [1] of 100%, a Motility [2] of 100% and a Motility [3] of 100%. The Motility [4] was 100%.

`COc1ccc(CCNC(=O)c2cc(S(=O)(=O)N3CC(C)CC(C)C3)ccc2Sc2ccc(F)cc2)cc1OC` (stereo not drawn) gave a Motility [1] of 100%, a Motility [2] of 100% and a Motility [3] of 100%. It also gave a Motility [4] of 100%.

With `CCOc1ccc(Nc2c3ccccc3nc3ccccc23)cc1.Cl` the Motility [1] was 100%, the Motility [2] was 100% and the Motility [3] was 100%. For the same compound, the Motility [4] was 100%.

`CC1=C(CC(=O)c2cccc([N+](=O)[O-])c2)C(=O)c2ccccc2C1=O` gave a Motility [1] of 100%, a Motility [2] of 100% and a Motility [3] of 100%. The Motility [4] was 100%.

Compound `OC1CCCCC1C1(NC(=S)Nc2ccccc2)CCCCC1` (stereo not drawn) has a Motility [1] of 100%, a Motility [2] of 100% and a Motility [3] of 100%. For the same compound, the Motility [4] was 100%.

Compound `OC1=C2C(=Nc3ccccc3SC2c2ccc(Br)cc2)c2ccccc21` (stereo not drawn) has a Motility [1] of 100%, a Motility [2] of 100% and a Motility [3] of 100%. For the same compound, the Motility [4] was 100%.

`COc1ccc(C)c2sc(N(Cc3cccnc3)C(=O)c3ccc(C#N)cc3)nc12` showed a Motility [1] of 100%, a Motility [2] of 100% and a Motility [3] of 100%. It also gave a Motility [4] of 100%.

`COc1ccc(C(=O)C2CC2c2ccc(Cl)cc2)cc1` (stereo not drawn) showed a Motility [1] of 100%, a Motility [2] of 100% and a Motility [3] of 100%. The Motility [4] was 100%.

Work on `CCCCCn1c(=N)n(CC(O)COc2cccc(C)c2)c2ccccc21.Cl` (stereo not drawn) yielded a Motility [1] of 100%, a Motility [2] of 100% and a Motility [3] of 100%. The Motility [4] was 100%.

Work on `COc1ccccc1N1C(=N)SC(=Cc2ccc(OCc3ccccc3F)cc2)C1=O` yielded a Motility [1] of 100%, a Motility [2] of 100% and a Motility [3] of 100%. For the same compound, the Motility [4] was 100%.

Compound `CCN1CCN(c2c(C(=O)c3ccccc3)cnc3cc(OC)c(OC)cc23)CC1` has a Motility [1] of 100%, a Motility [2] of 100% and a Motility [3] of 100%. It also gave a Motility [4] of 100%.

In the case of `Cc1ccc(S(=O)(=O)c2c(COC(=O)c3cccc(C)c3)c(-c3ccccc3)nn2C)cc1`, the Motility [1] is reported as 100%, the Motility [2] is reported as 100% and the Motility [3] is reported as 100%. For the same compound, the Motility [4] was 100%.
